The results in this text go back to patent EP0535626A1, “Use of 4-amino-1-(2-pyridyl)piperidines as anti-convulsivant and anti-epileptic agents” (SANOFI, priority 1991, dated 1993).

The test system of assay [1] is convulsions provoquées par électrochoc. Briefly: Electroshock-induced convulsions test in mice. It is filed as in vivo, souris. To be noted: Mus musculus, ip, 0.5 h; Swiss female mice, intraperitoneal 30 minutes before the shock (12 volts, 0,4 secondes, corneal electrodes); read-out: DE₅₀ (doses protégeant 50% des animaux). An excerpt:
(§1) La nouvelle activité anticonvulsivante des composés de formule (I), a été mise en évidence en évaluant les effets des composés (I) dans le test des convulsions provoquées par électrochoc chez la souris et dans le test des convulsions provoquées par le pentylénététrazole chez la souris selon la méthode décrite par C.S. Goodman, M. Singh Grewal, W.C. Brown et E.A. Swinyard dans J. Pharmacol. Exp. Ther. 108, 168-176, (1953).
(§2) Pour ces tests on a utilisé des souris Swiss femelles d'un poids corporel de 22 à 26 g, réparties en lot de 10 animaux chacun. Une semaine avant l'expérimentation, chaque lot de 10 a été mis en cage, gardé dans une pièce à température constante (21°C ± 1°C), en cycle jour/nuit, avec nourriture et boisson à volonté. Les produits de formule (I) à tester ainsi que le pentylénététrazole ont été mis en solution dans de l'eau distillée. Le volume d'injection des produits utilisés a été de 0,4 ml pour 20 g de poids corporel. • · Convulsions provoquées par le pentylénététrazole. Les composés de formule (I) ont été administrés par voie intrapéritonéale 30 minutes avant l'administration par voie intrapéritonéale de 130 mg/kg de pentylénététrazole (dose nécessaire pour que 80% des souris contrôlées présentent une crise convulsive). […]

Assay [2] has as its system convulsions provoquées par le pentylénététrazole. Briefly: Pentylenetetrazole-induced convulsions test in mice. It is filed as in vivo, souris. To be noted: Mus musculus, ip, 0.5 h; Swiss female mice, intraperitoneal 30 minutes before 130 mg/kg pentylénététrazole intraperitoneal; read-out: DE₅₀ (doses protégeant 50% des animaux).
Source text: as §1, §2

With `NC1CCN(c2cccc(Cl)n2)CC1` [4-amino-1-(6-chloro-2-pyridyl)pipéridine], the ED50 in assay [1] is less than 3 mg/kg; in assay [2], less than 10 mg/kg.
